Measured values: patent publication US6740642B2, “Macrolides with antibacterial activity” (BAsilea Parmaceutica AG, priority 2000, dated 2004)
Values after ≈ are worked out from the molar mass of the structure shown.

Experiments:
[1] = system: E. coli ATCC25922; experiment: MIC, standard microdilution; assay type: cell-based; details: Escherichia coli, read-out: minimum inhibitory concentration (MIC)
Source text: (§1) The antibacterial activities of the compounds have been determined by standard microdilution technique (National Committee for Clinical Laboratory Standards. 1997. Methods for dilution antimicrobial susceptibility tests for bacteria that grow aerobically, 4th edition. Approved standard M7-A4. National Committee for Clinical Laboratory Standards, Wayne, Pa.).

[2] = system: P. aeruginosa ATCC27853 (+Ery. 32 μg/ml); experiment: MIC, standard microdilution; assay type: cell-based
Source text: as §1

[3] = system: St. pneumoniae SL199T; experiment: MIC, standard microdilution; assay type: cell-based, Streptococcus pneumoniae; details: Streptococcus pneumoniae, read-out: minimum inhibitory concentration (MIC)
Source text: as §1

[4] = system: St. pneumoniae 1/1; experiment: MIC, standard microdilution; assay type: cell-based, Streptococcus pneumoniae; details: Streptococcus pneumoniae, read-out: minimum inhibitory concentration (MIC)
Source text: as §1

[5] = system: St. pneumoniae 1/4; experiment: MIC, standard microdilution; assay type: cell-based, Streptococcus pneumoniae; details: Streptococcus pneumoniae, read-out: minimum inhibitory concentration (MIC)
Source text: as §1

[6] = system: St. pneumoniae 12288; experiment: MIC, standard microdilution; assay type: cell-based, Streptococcus pneumoniae; details: Streptococcus pneumoniae, read-out: minimum inhibitory concentration (MIC)
Source text: as §1

[7] = system: H. influenzae H28 HEL; experiment: MIC, agar dilution, HTM medium; assay type: cell-based, Haemophilus influenzae; details: Haemophilus influenzae, H28HEL, read-out: MIC
Source text: as §1, with “biological” for “antibacterial”, “of compounds of” for “of”, “present invention against Haemophilus influenzae” for “compounds”, “agar dilution method using HTM medium” for “microdilution technique”

[8] = system: H. influenzae 3640; experiment: MIC, agar dilution, HTM medium; assay type: cell-based, Haemophilus influenzae; details: Haemophilus influenzae, read-out: MIC
Source text: as §1, with “biological” for “antibacterial”, “of compounds of” for “of”, “present invention against Haemophilus influenzae” for “compounds”, “agar dilution method using HTM medium” for “microdilution technique”

[9] = system: H. influenzae H36 ODL; experiment: MIC, agar dilution, HTM medium; assay type: cell-based, Haemophilus influenzae; details: Haemophilus influenzae, H36ODL, read-out: MIC
Source text: as §1, with “biological” for “antibacterial”, “of compounds of” for “of”, “present invention against Haemophilus influenzae” for “compounds”, “agar dilution method using HTM medium” for “microdilution technique”

[10] = system: H. influenzae H13 LAH; experiment: MIC, agar dilution, HTM medium; assay type: cell-based, Haemophilus influenzae; details: Haemophilus influenzae, H13LAH, read-out: MIC
Source text: as §1, with “biological” for “antibacterial”, “of compounds of” for “of”, “present invention against Haemophilus influenzae” for “compounds”, “agar dilution method using HTM medium” for “microdilution technique”

[11] = system: H. influenzae 23145; experiment: MIC, agar dilution, HTM medium; assay type: cell-based, Haemophilus influenzae; details: Haemophilus influenzae, read-out: MIC
Source text: as §1, with “biological” for “antibacterial”, “of compounds of” for “of”, “present invention against Haemophilus influenzae” for “compounds”, “agar dilution method using HTM medium” for “microdilution technique”

[12] = system: H. influenzae 4139; experiment: MIC, agar dilution, HTM medium; assay type: cell-based, Haemophilus influenzae; details: Haemophilus influenzae, read-out: MIC
Source text: as §1, with “biological” for “antibacterial”, “of compounds of” for “of”, “present invention against Haemophilus influenzae” for “compounds”, “agar dilution method using HTM medium” for “microdilution technique”

[13] = system: H. influenzae Rd KW20; experiment: MIC, agar dilution, HTM medium; assay type: cell-based, Haemophilus influenzae; details: Haemophilus influenzae, RDKW20, read-out: MIC
Source text: as §1, with “biological” for “antibacterial”, “of compounds of” for “of”, “present invention against Haemophilus influenzae” for “compounds”, “agar dilution method using HTM medium” for “microdilution technique”

[14] = system: H. influenzae H20 HDL; experiment: MIC, agar dilution, HTM medium; assay type: cell-based, Haemophilus influenzae; details: Haemophilus influenzae, H20HDL, read-out: MIC
Source text: as §1, with “biological” for “antibacterial”, “of compounds of” for “of”, “present invention against Haemophilus influenzae” for “compounds”, “agar dilution method using HTM medium” for “microdilution technique”

[15] = system: H. influenzae QK 12/87; experiment: MIC, agar dilution, HTM medium; assay type: cell-based, Haemophilus influenzae; details: Haemophilus influenzae, QK12/87, read-out: MIC
Source text: as §1, with “biological” for “antibacterial”, “of compounds of” for “of”, “present invention against Haemophilus influenzae” for “compounds”, “agar dilution method using HTM medium” for “microdilution technique”

[16] = system: H. influenzae 23369; experiment: MIC, agar dilution, HTM medium; assay type: cell-based, Haemophilus influenzae; details: Haemophilus influenzae, read-out: MIC
Source text: as §1, with “biological” for “antibacterial”, “of compounds of” for “of”, “present invention against Haemophilus influenzae” for “compounds”, “agar dilution method using HTM medium” for “microdilution technique”

[17] = system: H. influenzae ATCC 9334; experiment: MIC, agar dilution, HTM medium; assay type: cell-based, Haemophilus influenzae; details: Haemophilus influenzae, ATCC9334, read-out: MIC
Source text: as §1, with “biological” for “antibacterial”, “of compounds of” for “of”, “present invention against Haemophilus influenzae” for “compounds”, “agar dilution method using HTM medium” for “microdilution technique”

[18] = system: H. influenzae 3457; experiment: MIC, agar dilution, HTM medium; assay type: cell-based, Haemophilus influenzae; details: Haemophilus influenzae, read-out: MIC
Source text: as §1, with “biological” for “antibacterial”, “of compounds of” for “of”, “present invention against Haemophilus influenzae” for “compounds”, “agar dilution method using HTM medium” for “microdilution technique”

[19] = system: H. influenzae 3201; experiment: MIC, agar dilution, HTM medium; assay type: cell-based, Haemophilus influenzae; details: Haemophilus influenzae, read-out: MIC
Source text: as §1, with “biological” for “antibacterial”, “of compounds of” for “of”, “present invention against Haemophilus influenzae” for “compounds”, “agar dilution method using HTM medium” for “microdilution technique”

[20] = system: H. influenzae ATCC 49247; experiment: MIC, agar dilution, HTM medium; assay type: cell-based, Haemophilus influenzae; details: Haemophilus influenzae, ATCC49247, read-out: MIC
Source text: as §1, with “biological” for “antibacterial”, “of compounds of” for “of”, “present invention against Haemophilus influenzae” for “compounds”, “agar dilution method using HTM medium” for “microdilution technique”

[21] = system: H. influenzae QK 50; experiment: MIC, agar dilution, HTM medium; assay type: cell-based, Haemophilus influenzae; details: Haemophilus influenzae, QK50, read-out: MIC
Source text: as §1, with “biological” for “antibacterial”, “of compounds of” for “of”, “present invention against Haemophilus influenzae” for “compounds”, “agar dilution method using HTM medium” for “microdilution technique”

[22] = system: H. influenzae B 1501; experiment: MIC, agar dilution, HTM medium; assay type: cell-based, Haemophilus influenzae; details: Haemophilus influenzae, B1501, read-out: MIC
Source text: as §1, with “biological” for “antibacterial”, “of compounds of” for “of”, “present invention against Haemophilus influenzae” for “compounds”, “agar dilution method using HTM medium” for “microdilution technique”

[23] = system: H. influenzae Christy; experiment: MIC, agar dilution, HTM medium; assay type: cell-based, Haemophilus influenzae; details: Haemophilus influenzae, read-out: MIC
Source text: as §1, with “biological” for “antibacterial”, “of compounds of” for “of”, “present invention against Haemophilus influenzae” for “compounds”, “agar dilution method using HTM medium” for “microdilution technique”

[24] = system: H. influenzae 12214; experiment: MIC, agar dilution, HTM medium; assay type: cell-based, Haemophilus influenzae; details: Haemophilus influenzae, read-out: MIC
Source text: as §1, with “biological” for “antibacterial”, “of compounds of” for “of”, “present invention against Haemophilus influenzae” for “compounds”, “agar dilution method using HTM medium” for “microdilution technique”

[25] = system: H. influenzae 11; experiment: MIC, agar dilution, HTM medium; assay type: cell-based, Haemophilus influenzae; details: Haemophilus influenzae, read-out: MIC
Source text: as §1, with “biological” for “antibacterial”, “of compounds of” for “of”, “present invention against Haemophilus influenzae” for “compounds”, “agar dilution method using HTM medium” for “microdilution technique”

[26] = system: H. influenzae 1; experiment: MIC, agar dilution, HTM medium; assay type: cell-based, Haemophilus influenzae; details: Haemophilus influenzae, read-out: MIC
Source text: as §1, with “biological” for “antibacterial”, “of compounds of” for “of”, “present invention against Haemophilus influenzae” for “compounds”, “agar dilution method using HTM medium” for “microdilution technique”

[27] = system: H. influenzae 2947; experiment: MIC, agar dilution, HTM medium; assay type: cell-based, Haemophilus influenzae; details: Haemophilus influenzae, read-out: MIC
Source text: as §1, with “biological” for “antibacterial”, “of compounds of” for “of”, “present invention against Haemophilus influenzae” for “compounds”, “agar dilution method using HTM medium” for “microdilution technique”

[28] = system: S. aureus ATCC29213; experiment: MIC, standard microdilution; assay type: cell-based, Staphylococcus aureus; details: Staphylococcus aureus, read-out: minimum inhibitory concentration (MIC)
Source text: as §1

[29] = system: S. aureus 1086; experiment: MIC, standard microdilution; assay type: cell-based, Staphylococcus aureus; details: Staphylococcus aureus, read-out: minimum inhibitory concentration (MIC)
Source text: as §1

[30] = system: S. aureus 745; experiment: MIC, standard microdilution; assay type: cell-based, Staphylococcus aureus; details: Staphylococcus aureus, read-out: minimum inhibitory concentration (MIC)
Source text: as §1

## CC[C@H]1OC(=O)[C@H](C)C(=O)[C@H](C)[C@@H](O[C@@H]2O[C@H](C)C[C@H](N(C)C)[C@H]2O)[C@](C)(OC)C[C@@H](C)C(=O)[C@H](C)[C@H]2[C@H](SCCn3cc(C)c(=O)[nH]c3=O)C(=O)O[C@@]21C [Compound I-7, (3S,3aR,4R,6R,8R,9R,10R,12R,15R,15aS)-15-Ethyloctahydro-8-methoxy-4,6,8,10,12,15a-hexamethyl-3-[[2-[5-methyl-2,4-1H,3H-pyrimidinedione-1-yl]ethyl]thio]-9-[[3,4,6-trideoxy-3-(dimethylamino)-β-D-xylo-hexopyranosyl]oxy]-2H-furo[2,3-c]oxacyclotetradecin-2,5,11,13(3H,6H,12H)-tetrone]
[1]
  MIC: > 16 µg/mL
[2]
  minimum inhibitory concentration (MIC): >16 µg/mL
[3]
  MIC: 1 µg/mL (≈ 1.26 µM)
[4]
  MIC: ≤ 0.12 µg/mL
[5]
  MIC: ≤ 0.12 µg/mL
[6]
  MIC: 8 µg/mL (≈ 10.1 µM)
[7]
  MIC: 2 µg/mL (≈ 2.51 µM)
[8]
  MIC: 2 µg/mL (≈ 2.51 µM)
[9]
  MIC: 8 µg/mL (≈ 10.1 µM)
[10]
  MIC: 4 µg/mL (≈ 5.03 µM)
[11]
  MIC: 4 µg/mL (≈ 5.03 µM)
[12]
  MIC: 2 µg/mL (≈ 2.51 µM)
[13]
  MIC: 4 µg/mL (≈ 5.03 µM)
[14]
  MIC: 2 µg/mL (≈ 2.51 µM)
[15]
  MIC: 2 µg/mL (≈ 2.51 µM)
[16]
  MIC: 8 µg/mL (≈ 10.1 µM)
[17]
  MIC: 4 µg/mL (≈ 5.03 µM)
[18]
  MIC: 0.5 µg/mL (≈ 0.628 µM)
[19]
  MIC: 4 µg/mL (≈ 5.03 µM)
[20]
  MIC: 4 µg/mL (≈ 5.03 µM)
[21]
  MIC: 4 µg/mL (≈ 5.03 µM)
[22]
  MIC: 4 µg/mL (≈ 5.03 µM)
[23]
  MIC: 4 µg/mL (≈ 5.03 µM)
[24]
  MIC: 4 µg/mL (≈ 5.03 µM)
[25]
  MIC: 4 µg/mL (≈ 5.03 µM)
[26]
  MIC: 4 µg/mL (≈ 5.03 µM)
[27]
  MIC: 4 µg/mL (≈ 5.03 µM)
[28]
  MIC: ≤ 0.12 µg/mL
[29]
  MIC: ≤ 0.12 µg/mL
[30]
  MIC: > 16 µg/mL
